Laboratory results published in ChEMBL document CHEMBL5360555, “Structure-based discovery of novel α-aminoketone derivatives as dual p53-MDM2/MDMX inhibitors for the treatment of cancer” (Eur J Med Chem, 2023).
Calls of active or inactive are those of the source. No cut-off for these calls is given here.

Experiments:
HCT-116 [1] = experiment: Antiproliferative activity against human HCT-116 cells overexpressing MDM2 assessed as cell growth inhibition incubated for 72 hrs by CCK-8 assay; type: functional, cell-based; conditions: HCT-116, 72 h
Protein Mdm4 = biological target: T1, Protein Mdm4 (Homo sapiens, UniProt O15151); experiment: Binding affinity to MDMX (1 to 118 residues) (unknown origin) assessed as inhibition constant incubated for 1 hr measured by fluorescence polarization assay
T1 sequence (O15151 whole entry): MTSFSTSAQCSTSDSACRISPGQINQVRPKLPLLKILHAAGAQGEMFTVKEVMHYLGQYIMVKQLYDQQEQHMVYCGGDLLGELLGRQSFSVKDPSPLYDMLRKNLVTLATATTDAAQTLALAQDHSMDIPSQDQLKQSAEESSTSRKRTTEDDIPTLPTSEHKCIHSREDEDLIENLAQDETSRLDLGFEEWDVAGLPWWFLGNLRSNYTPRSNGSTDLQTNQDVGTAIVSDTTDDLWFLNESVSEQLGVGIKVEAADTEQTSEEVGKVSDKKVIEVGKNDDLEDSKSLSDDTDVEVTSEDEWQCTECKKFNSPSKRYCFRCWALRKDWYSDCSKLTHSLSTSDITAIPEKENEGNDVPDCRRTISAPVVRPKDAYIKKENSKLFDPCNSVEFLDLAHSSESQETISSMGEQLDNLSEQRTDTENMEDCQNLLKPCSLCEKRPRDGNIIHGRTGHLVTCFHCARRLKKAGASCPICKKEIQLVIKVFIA

[2] = biological target: E3 ubiquitin-protein ligase Mdm2 (Homo sapiens, UniProt Q00987); experiment: Binding affinity to MDM2 (1 to 118 residues) (unknown origin) assessed as inhibition constant incubated for 1 hr measured by fluorescence polarization assay
SJSA-1 = experiment: Antiproliferative activity against human SJSA-1 cells overexpressing MDM2 assessed as cell growth inhibition incubated for 72 hrs by CCK-8 assay; type: functional, cell-based; conditions: SJSA-1, 72 h
SH-SY5Y [3] = experiment: Antiproliferative activity against human SH-SY5Y cells overexpressing MDMX assessed as cell growth inhibition incubated for 72 hrs by CCK-8 assay; type: functional, cell-based
[4] = Antiproliferative activity against human HCT116-p53-null cells overexpressing MDMX assessed as cell growth inhibition incubated for 72 hrs by CCK-8 assay; type: functional, cell-based
HCT-116 [5] = experiment: Antiproliferative activity against human HCT-116 cells overexpressing MDM2 assessed as cell growth inhibition incubated at 10 uM for 72 hrs by CCK-8 assay relative to control; type: functional
HCT-116 [6] = experiment: Inhibition of colony formation in human HCT-116 cells incubated at 0.6 uM for 8 to 15 days measured by crystal violet staining based microscopic analysis; type: functional, cell-based; conditions: time 8-15 day
SH-SY5Y [7] = experiment: Antiproliferative activity against human SH-SY5Y cells overexpressing MDMX assessed as cell growth inhibition incubated at 10 uM for 72 hrs by CCK-8 assay relative to control; type: functional
SH-SY5Y [8] = experiment: Inhibition of colony formation in human SH-SY5Y cells incubated at 0.6 uM for 8 to 15 days measured by crystal violet staining based microscopic analysis; type: functional, cell-based; conditions: time 8-15 day
HCT-116 [9] = experiment: Induction of apoptosis in human HCT-116 cells assessed as apoptotic cells at 0.6 uM for 48 hrs measured by Annexin V-PI based flow cytometric analysis relative to control; type: functional
SH-SY5Y [10] = experiment: Induction of apoptosis in human SH-SY5Y cells assessed as apoptotic cells at 0.6 uM for 48 hrs measured by Annexin V-PI based flow cytometric analysis relative to control; type: functional
SH-SY5Y [11] = experiment: Reactivation of p53 pathway in human SH-SY5Y cells assessed as increase in MDMX level treated at 0.6 to 2.4 uM for 48 hrs measured by Western blotting analysis; type: cell-based; conditions: dose 0.6-2.4 µM
HCT-116 [12] = experiment: Inhibition of cell migration in human HCT-116 cells measured using transwell chamber by crystal violet staining based microscopic analysis; type: functional; conditions: dose 0.2-0.6 µM
HCT-116 [13] = experiment: Inhibition of cell invasion in human HCT-116 cells measured using transwell chamber by crystal violet staining based microscopic analysis; type: functional; conditions: dose 0.2-0.6 µM
HCT-116 [14] = experiment: Reactivation of p53 pathway in human HCT-116 cells assessed as increase in p53 level treated at 0.6 to 2.4 uM for 48 hrs measured by Western blotting analysis; type: cell-based; conditions: dose 0.6-2.4 µM
[15] = biological target: Tumour suppressor p53/oncoprotein Mdm2 (Homo sapiens) (UniProt P04637+Q00987); experiment: Inhibition of protein binding in p53/MDM2 in human HCT116 cells assessed as disruption of protein-protein interaction measured at 1.2 uM for 48 hrs by co-immunoprecipitation based Western blotting analysis; type: cell-based; conditions: HCT-116
HCT-116 [16] = experiment: Induction of cell cycle arrest in human HCT-116 cells assessed as increase in accumulation of cells at G1 phase incubated at 0.6 to 2.4 uM for 48 hrs by measured by flow cytometric analysis; type: functional, cell-based; conditions: dose 0.6-2.4 µM
HCT-116 [17] = experiment: Reactivation of p53 pathway in human HCT-116 cells assessed as increase in cleaved caspase 3 level treated at 0.6 to 2.4 uM for 48 hrs measured by Western blotting analysis; type: cell-based; conditions: dose 0.6-2.4 µM
SH-SY5Y [18] = experiment: Reactivation of p53 pathway in human SH-SY5Y cells assessed as increase in p53 level treated at 0.6 to 2.4 uM for 48 hrs measured by Western blotting analysis; type: cell-based; conditions: dose 0.6-2.4 µM
SH-SY5Y [19] = experiment: Inhibition of cell invasion in human SH-SY5Y cells measured using transwell chamber by crystal violet staining based microscopic analysis; type: functional; conditions: dose 0.2-0.6 µM
[20] = biological target: Cellular tumor antigen p53 (Homo sapiens) (UniProt P04637); experiment: Reactivation of p53 pathway in human HCT-116 cells assessed as increase in p21 level treated at 0.6 to 2.4 uM for 48 hrs measured by Western blotting analysis; type: cell-based; conditions: dose 0.6-2.4 µM
[21] = Cytotoxicity against human BEAS-2B cells incubated for 72 hrs by CCK-8 assay; type: toxicity, cell-based
HCT-116 [22] = experiment: Induction of apoptosis in human HCT-116 cells assessed as apoptotic cells at 2.4 uM for 48 hrs measured by Annexin V-PI based flow cytometric analysis relative to control; type: functional
[23] = Cytotoxicity against human LO2 cells incubated for 72 hrs by CCK-8 assay; type: toxicity, cell-based, L02
SH-SY5Y [24] = experiment: Reactivation of p53 pathway in human SH-SY5Y cells assessed as increase in p21 level treated at 0.6 to 2.4 uM for 48 hrs measured by Western blotting analysis; type: cell-based; conditions: dose 0.6-2.4 µM
SH-SY5Y [25] = experiment: Reactivation of p53 pathway in human SH-SY5Y cells assessed as increase in cleaved caspase 3level treated at 0.6 to 2.4 uM for 48 hrs measured by Western blotting analysis; type: cell-based; conditions: dose 0.6-2.4 µM
SH-SY5Y [26] = experiment: Induction of cell cycle arrest in human SH-SY5Y cells assessed as increase in accumulation of cells at G1 phase incubated at 0.6 to 2.4 uM for 48 hrs by measured by flow cytometric analysis; type: functional, cell-based; conditions: dose 0.6-2.4 µM
SH-SY5Y [27] = experiment: Induction of apoptosis in human SH-SY5Y cells assessed as apoptotic cells at 2.4 uM for 48 hrs measured by Annexin V-PI based flow cytometric analysis relative to control; type: functional
SH-SY5Y [28] = experiment: Inhibition of cell migration in human SH-SY5Y cells measured using transwell chamber by crystal violet staining based microscopic analysis; type: functional; conditions: dose 0.2-0.6 µM
HCT-116 [29] = experiment: Induction of cell cycle arrest in human HCT-116 cells assessed as decrease in accumulation of cells at G2 phase incubated at 0.6 to 2.4 uM for 48 hrs by measured by flow cytometric analysis; type: functional, cell-based; conditions: dose 0.6-2.4 µM
SH-SY5Y [30] = experiment: Induction of cell cycle arrest in human SH-SY5Y cells assessed as decrease in accumulation of cells at G2 phase incubated at 0.6 to 2.4 uM for 48 hrs by measured by flow cytometric analysis; type: functional, cell-based; conditions: dose 0.6-2.4 µM
SH-SY5Y [31] = experiment: Reactivation of p53 pathway in human SH-SY5Y cells assessed as increase in MDM2 level treated at 0.6 to 2.4 uM for 48 hrs measured by Western blotting analysis; type: cell-based; conditions: dose 0.6-2.4 µM
[32] = biological target: Cellular tumor antigen p53 (Homo sapiens) (UniProt P04637); experiment: Reactivation of p53 pathway in human HCT-116 cells assessed as increase in MDM2 level treated at 0.6 to 2.4 uM for 48 hrs measured by Western blotting analysis; type: cell-based; conditions: dose 0.6-2.4 µM
[33] = biological target: Cellular tumor antigen p53 (Homo sapiens) (UniProt P04637); experiment: Reactivation of p53 pathway in human HCT-116 cells assessed as increase in MDMX level treated at 0.6 to 2.4 uM for 48 hrs measured by Western blotting analysis; type: cell-based; conditions: dose 0.6-2.4 µM

Chain of Cellular tumor antigen p53 (Homo sapiens) (P04637 whole entry, looked up): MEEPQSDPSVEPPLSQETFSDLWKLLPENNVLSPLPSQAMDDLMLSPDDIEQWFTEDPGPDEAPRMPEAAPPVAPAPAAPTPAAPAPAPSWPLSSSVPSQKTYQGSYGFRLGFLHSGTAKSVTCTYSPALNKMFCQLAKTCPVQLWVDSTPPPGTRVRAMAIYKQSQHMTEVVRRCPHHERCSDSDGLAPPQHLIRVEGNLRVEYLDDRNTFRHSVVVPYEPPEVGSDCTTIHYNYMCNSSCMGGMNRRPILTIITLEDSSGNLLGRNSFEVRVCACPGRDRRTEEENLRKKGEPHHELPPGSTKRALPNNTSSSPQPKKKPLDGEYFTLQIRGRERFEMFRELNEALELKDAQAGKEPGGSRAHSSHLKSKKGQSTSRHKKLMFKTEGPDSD
Chain of E3 ubiquitin-protein ligase Mdm2 (Q00987 whole entry, the tested form may be a part): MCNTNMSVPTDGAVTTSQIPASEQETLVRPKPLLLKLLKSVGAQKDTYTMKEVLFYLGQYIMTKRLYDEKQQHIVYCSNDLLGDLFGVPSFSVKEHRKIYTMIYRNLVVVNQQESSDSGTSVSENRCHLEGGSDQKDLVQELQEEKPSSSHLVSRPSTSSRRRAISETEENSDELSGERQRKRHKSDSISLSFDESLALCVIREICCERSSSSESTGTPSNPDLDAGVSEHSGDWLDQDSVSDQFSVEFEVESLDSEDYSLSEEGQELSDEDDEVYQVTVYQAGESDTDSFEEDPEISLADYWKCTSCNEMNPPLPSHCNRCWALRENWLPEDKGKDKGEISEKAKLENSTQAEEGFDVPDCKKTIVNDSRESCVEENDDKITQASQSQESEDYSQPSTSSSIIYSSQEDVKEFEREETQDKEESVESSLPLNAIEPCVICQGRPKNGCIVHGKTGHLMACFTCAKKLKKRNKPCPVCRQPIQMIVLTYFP
Chain of Tumour suppressor p53/oncoprotein Mdm2 (Homo sapiens) (P04637 whole entry, looked up): as the sequence (P04637 whole entry, looked up) above
Chain of Tumour suppressor p53/oncoprotein Mdm2 (Homo sapiens) (Q00987 whole entry, looked up): as the sequence (Q00987 whole entry, the tested form may be a part) above

O=C(c1ccc(Cl)cc1)C(c1ccc(F)cc1Cl)N(C(=O)CCC(=O)N1CCN(CCO)CC1)c1ccc(Cl)cc1 (stereo not drawn)
IC50 (HCT-116 [1]): 3.97 µM
Ki (Protein Mdm4): 11.6 µM
Ki [2]: 0.48 µM
IC50 (SJSA-1): 4.36 µM
IC50 (SH-SY5Y [3]): 4.42 µM
IC50 [4]: 15.6 µM

COC(=O)c1ccc(C(=O)N(c2ccc(Cl)cc2)C(C(=O)c2ccc(Cl)cc2)c2ccc(F)cc2Cl)cc1 (stereo not drawn)
IC50 (HCT-116 [1]): 8.86 µM
Ki (Protein Mdm4): 12.9 µM
Ki [2]: 1.06 µM
IC50 (SJSA-1): 10.2 µM
IC50 (SH-SY5Y [3]): 7.33 µM
IC50 [4]: 20.8 µM

COc1ccc(C2=N[C@H](c3ccc(Cl)cc3)[C@H](c3ccc(Cl)cc3)N2C(=O)N2CCNC(=O)C2)c(OC(C)C)c1
IC50 (HCT-116 [1]): 11.3 µM
inhibition at 10 µM (HCT-116 [5]): 49.2%
inhibition (HCT-116 [6]): Active
inhibition at 10 µM (SH-SY5Y [7]): 46.5%
inhibition (SH-SY5Y [8]): Active
IC50 [4]: 29.5 µM

CC(C)(C)OC(=O)N1CCN(C(=O)CCC(=O)N(c2ccc(Cl)cc2)C(C(=O)c2ccc(Cl)cc2)c2ccc(F)cc2Cl)CC1 (stereo not drawn)
IC50 (HCT-116 [1]): 9.98 µM
Ki (Protein Mdm4): 36.8 µM
Ki [2]: 0.73 µM
IC50 (SJSA-1): 9.47 µM
IC50 (SH-SY5Y [3]): 11.8 µM
IC50 [4]: 17.4 µM

O=C(c1ccc(Cl)cc1)C(c1ccc(F)cc1Cl)N(C(=O)CCC(=O)N1CCNCC1)c1ccc(Cl)cc1 (stereo not drawn)
IC50 (HCT-116 [1]): 0.68 µM
Activity (HCT-116 [9]): 13.63%
Activity (SH-SY5Y [10]): 15.69%
inhibition (HCT-116 [6]): Active
Activity (SH-SY5Y [11]): Active
inhibition (HCT-116 [12]): Dose-Dependent Effect
inhibition (HCT-116 [13]): Dose-Dependent Effect
Activity (HCT-116 [14]): Active
inhibition [15]: Active
Ki (Protein Mdm4): 2.45 µM
Activity (HCT-116 [16]): Active
Activity (HCT-116 [17]): Active
Activity (SH-SY5Y [18]): Active
inhibition (SH-SY5Y [19]): Dose-Dependent Effect
Activity [20]: Active
IC50 at 72 h [21]: 18 µM
Activity (HCT-116 [22]): 37.6%
IC50 at 72 h [23]: 15.9 µM
Activity (SH-SY5Y [24]): Active
Activity (SH-SY5Y [25]): Active
Activity (SH-SY5Y [26]): Active
Activity (SH-SY5Y [27]): 40.8%
inhibition (SH-SY5Y [28]): Dose-Dependent Effect
Activity (HCT-116 [29]): Active
Activity (SH-SY5Y [30]): Active
Ki [2]: 0.23 µM
IC50 (SJSA-1): 0.58 µM
Activity (SH-SY5Y [31]): Active
inhibition (SH-SY5Y [8]): Active
IC50 (SH-SY5Y [3]): 0.54 µM
IC50 [4]: 14 µM
Activity [32]: Active
Activity [33]: Active

CC(=O)N1CCN(C(=O)CCC(=O)N(c2ccc(Cl)cc2)C(C(=O)c2ccc(Cl)cc2)c2ccc(F)cc2Cl)CC1 (stereo not drawn)
IC50 (HCT-116 [1]): 4.21 µM
Ki (Protein Mdm4): 7.43 µM
Ki [2]: 0.35 µM
IC50 (SJSA-1): 3.79 µM
IC50 (SH-SY5Y [3]): 4.1 µM
IC50 [4]: 26.8 µM
